Among the data in patent US9725465B2, “Biaryl acetamide compounds and methods of use thereof” (Ambit Biosciences Corporation, priority 2013, dated 2017) are Kd and IC50 values, retold here.

pIC50, pKd: −log10 of the molar value. Where only a bound is given, the exact number is not on record here.

For orientation: pKd means the Kd on a negative log10 scale, so that one unit is a factor of ten. High values mean a small Kd, low ones a large Kd. Usually pIC50 stands for −log10 of the IC50, conventionally taken in molar units.

One assay has as its target FLT3 kinase (Homo sapiens (Human), UniProt P36888). In words: Competition binding assay (Kd), FLT3. The settings on record: competition binding assay.
In a further assay the target is KIT kinase (Homo sapiens (Human), UniProt P10721). In words: Competition binding assay (Kd), KIT. The settings on record: competition binding assay. The essentials: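 Kd derived from eleven-point threefold serial dilutions of compound competing with bead-bound ligand for kinase; bound kinase eluted and measured by quantitative PCR. Kinase supplied either as a T7 phage fusion or expressed in HEK-293 cells with a DNA tag; DMSO served as control.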

The target of another assay is FLT3-ITD (Homo sapiens (Human), UniProt P36888, INS600HVDFREYEYD). Nature of the assay: pFLT3 MSD assay, Ba/F3 FLT3-ITD. Format: cell-based. The settings on record: Ba/F3 FLT3-ITD cells, 2 hours, read-out: BaF3-FLT3-ITD pFlt3 IC50.
Sequence of FLT3-ITD (P36888 other isoform, or with tags, fused parts or gaps limits assumed, stated change not applied): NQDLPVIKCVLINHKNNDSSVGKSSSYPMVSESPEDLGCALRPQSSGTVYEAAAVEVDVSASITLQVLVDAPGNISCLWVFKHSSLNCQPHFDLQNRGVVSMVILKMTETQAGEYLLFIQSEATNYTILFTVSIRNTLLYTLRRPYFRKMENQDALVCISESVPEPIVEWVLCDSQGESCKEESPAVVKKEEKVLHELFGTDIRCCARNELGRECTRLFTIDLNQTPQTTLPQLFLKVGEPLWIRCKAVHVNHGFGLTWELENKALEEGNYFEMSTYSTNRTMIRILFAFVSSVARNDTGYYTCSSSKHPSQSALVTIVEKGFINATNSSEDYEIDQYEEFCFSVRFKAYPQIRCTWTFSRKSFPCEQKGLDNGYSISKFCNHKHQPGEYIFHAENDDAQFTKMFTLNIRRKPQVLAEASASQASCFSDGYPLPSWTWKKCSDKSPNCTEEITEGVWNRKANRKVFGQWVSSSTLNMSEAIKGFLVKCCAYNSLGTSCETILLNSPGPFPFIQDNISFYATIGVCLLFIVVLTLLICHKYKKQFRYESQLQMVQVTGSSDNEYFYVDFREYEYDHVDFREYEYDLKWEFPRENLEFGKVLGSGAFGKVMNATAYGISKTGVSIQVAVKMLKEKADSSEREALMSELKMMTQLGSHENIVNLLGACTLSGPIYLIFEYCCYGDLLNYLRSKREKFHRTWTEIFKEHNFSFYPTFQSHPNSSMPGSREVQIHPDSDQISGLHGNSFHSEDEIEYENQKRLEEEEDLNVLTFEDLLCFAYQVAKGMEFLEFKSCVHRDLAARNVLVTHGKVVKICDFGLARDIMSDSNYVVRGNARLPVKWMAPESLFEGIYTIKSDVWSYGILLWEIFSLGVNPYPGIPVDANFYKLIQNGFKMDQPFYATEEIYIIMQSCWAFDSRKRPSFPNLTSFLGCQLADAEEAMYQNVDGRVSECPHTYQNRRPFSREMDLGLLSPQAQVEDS

Sequence of FLT3 kinase (P36888 27-993): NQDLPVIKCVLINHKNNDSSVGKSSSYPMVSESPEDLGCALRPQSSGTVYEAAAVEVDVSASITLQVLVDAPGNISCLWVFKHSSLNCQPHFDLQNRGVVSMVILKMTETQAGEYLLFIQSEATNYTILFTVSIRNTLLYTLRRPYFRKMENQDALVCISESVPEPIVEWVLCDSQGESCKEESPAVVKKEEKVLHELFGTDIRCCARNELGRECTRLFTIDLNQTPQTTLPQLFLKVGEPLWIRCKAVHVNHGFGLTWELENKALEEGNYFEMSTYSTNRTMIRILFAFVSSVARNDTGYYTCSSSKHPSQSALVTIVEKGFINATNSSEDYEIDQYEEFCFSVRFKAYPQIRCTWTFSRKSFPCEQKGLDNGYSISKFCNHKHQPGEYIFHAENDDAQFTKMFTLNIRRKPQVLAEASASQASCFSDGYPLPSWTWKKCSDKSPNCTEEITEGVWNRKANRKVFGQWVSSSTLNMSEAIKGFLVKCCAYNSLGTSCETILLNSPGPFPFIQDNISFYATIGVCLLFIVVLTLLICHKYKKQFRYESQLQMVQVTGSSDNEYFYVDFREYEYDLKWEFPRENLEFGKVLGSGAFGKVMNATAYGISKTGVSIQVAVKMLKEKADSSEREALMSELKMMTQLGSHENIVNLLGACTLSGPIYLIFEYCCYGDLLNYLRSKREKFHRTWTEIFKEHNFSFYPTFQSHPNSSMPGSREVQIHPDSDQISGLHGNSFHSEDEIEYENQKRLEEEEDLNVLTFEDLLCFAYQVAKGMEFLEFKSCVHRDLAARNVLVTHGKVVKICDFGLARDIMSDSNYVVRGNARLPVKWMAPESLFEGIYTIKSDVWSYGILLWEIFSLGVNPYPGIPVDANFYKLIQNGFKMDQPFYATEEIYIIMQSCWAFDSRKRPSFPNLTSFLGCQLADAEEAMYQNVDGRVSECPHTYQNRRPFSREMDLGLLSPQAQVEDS
Sequence of KIT kinase (P10721 26-976): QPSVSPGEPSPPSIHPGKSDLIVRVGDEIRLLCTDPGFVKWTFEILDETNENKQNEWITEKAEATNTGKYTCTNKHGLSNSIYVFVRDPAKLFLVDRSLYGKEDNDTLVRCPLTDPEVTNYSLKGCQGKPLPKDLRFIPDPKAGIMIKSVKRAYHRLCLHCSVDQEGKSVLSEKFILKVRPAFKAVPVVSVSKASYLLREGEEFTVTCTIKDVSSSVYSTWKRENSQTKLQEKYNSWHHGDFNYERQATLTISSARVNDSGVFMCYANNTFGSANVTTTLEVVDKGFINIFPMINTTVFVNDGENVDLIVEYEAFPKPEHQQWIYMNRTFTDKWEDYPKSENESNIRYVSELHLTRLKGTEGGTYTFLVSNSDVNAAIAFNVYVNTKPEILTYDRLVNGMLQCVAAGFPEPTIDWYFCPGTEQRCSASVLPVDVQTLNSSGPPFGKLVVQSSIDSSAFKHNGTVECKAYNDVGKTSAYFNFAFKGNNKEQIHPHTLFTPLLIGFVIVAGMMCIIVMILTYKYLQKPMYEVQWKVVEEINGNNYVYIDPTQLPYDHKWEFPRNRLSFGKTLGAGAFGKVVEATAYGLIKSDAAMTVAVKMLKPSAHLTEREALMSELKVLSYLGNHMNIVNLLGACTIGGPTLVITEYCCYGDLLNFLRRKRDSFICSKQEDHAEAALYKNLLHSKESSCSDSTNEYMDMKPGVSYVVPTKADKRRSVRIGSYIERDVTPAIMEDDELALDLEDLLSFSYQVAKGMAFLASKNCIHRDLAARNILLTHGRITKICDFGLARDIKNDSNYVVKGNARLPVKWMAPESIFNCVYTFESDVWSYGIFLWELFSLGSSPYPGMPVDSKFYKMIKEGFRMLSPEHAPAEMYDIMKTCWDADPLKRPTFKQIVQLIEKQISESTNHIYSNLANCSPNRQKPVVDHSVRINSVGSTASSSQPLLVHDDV

For `COCCOc1cc2ncc(-c3ccc(CC(=O)Nc4cc(C5(C(F)(F)F)CC5)on4)c(F)c3)cc2cc1OC` [Example 126, 2-[2-fluoro-4-[6-methoxy-7-(2-methoxyethoxy)-3-quinolyl]phenyl]-N-[5-[1-(trifluoromethyl)cyclo-propyl]isoxazol-3-yl]acetamide], the pKd on FLT3 kinase and at KIT kinase was > 8.30 in each case. The pIC50 on FLT3-ITD is > 8.00.
With `COc1cc2cc(-c3ccc(CC(=O)Nc4cc(C5(C(F)(F)F)CC5)on4)c(F)c3)cnc2cc1OCCOC(C)=O` [Example 127, 2-[[3-[3-fluoro-4-[2-oxo-2-[[5-[1-(trifluoro-methyl)cyclopropyl]isoxazol-3-yl]amino]ethyl]phenyl]-6-methoxy-7-quinolyl]oxy]ethyl acetate], the pKd at FLT3 kinase and on KIT kinase was > 8.30 in each case. The pIC50 at FLT3-ITD is > 8.00.
As for `COc1cc2cc(-c3ccc(CC(=O)Nc4cc(C5(C(F)(F)F)CC5)on4)c(F)c3)cnc2cc1OC` [Example 128, 2-[4-(6,7-dimethoxy-3-quinolyl)-2-fluoro-phenyl]-N-[5-[1-(trifluoro-methyl)cyclopropyl]isoxazol-3-yl]acetamide], the pKd on FLT3 kinase and at KIT kinase was > 8.30 each time. For the same compound, the pIC50 at FLT3-ITD is > 8.00.
For `COc1cc2cc(-c3ccc(CC(=O)Nc4cc(C(C)(C)C(F)(F)F)on4)c(F)c3)cnc2cc1OC` [Example 129, 2-[4-(6,7-dimethoxy-3-quinolyl)-2-fluoro-phenyl]-N-[5-(2,2,2-trifluoro-1,1-dimethyl-ethyl)isoxazol-3-yl]acetamide], the pKd on FLT3 kinase and at KIT kinase was > 8.30 throughout. Also, the pIC50 on FLT3-ITD is > 8.00.
Consider `COc1cc2nc(-c3ccc(CC(=O)Nc4cc(C5(C(F)(F)F)CC5)on4)c(F)c3)cnc2cc1OCCOC(C)=O` [Example 130, 2-[2-[3-fluoro-4-[2-oxo-2-[[5-[1-(trifluoromethyl)cyclo-propyl]isoxazol-3-yl]amino]ethyl]phenyl]-7-methoxy-quinoxalin-6-yl]oxyethyl acetate], for which the pKd on FLT3 kinase and at KIT kinase was > 8.30 in each case. Moreover, at FLT3-ITD, the pIC50 was > 8.00.
Take `COc1cc2nc(-c3ccc(CC(=O)Nc4cc(C5(C(F)(F)F)CC5)on4)c(F)c3)cnc2cc1OCCO` [Example 131, 2-[2-fluoro-4-[6-(2-hydroxyethoxy)-7-methoxy-quinoxalin-2-yl]phenyl]-N-[5-[1-(trifluoromethyl)cyclo-propyl]isoxazol-3-yl]acetamide]: the pKd at FLT3 kinase and on KIT kinase was > 8.30 each time. In addition, the pIC50 at FLT3-ITD is > 8.00.
Take `CCOC(=O)c1nc2cc(OC)c(OC)cc2nc1-c1ccc(CC(=O)Nc2cc(C3(C(F)(F)F)CC3)on2)c(F)c1` [Example 132, ethyl 3-[3-fluoro-4-[2-oxo-2-[[5-[1-(trifluoro-methyl)cyclopropyl]isoxazol-3-yl]amino]ethyl]phenyl]-6,7-dimethoxy-quinoxaline-2-carboxylate]: the pKd at FLT3 kinase and on KIT kinase was < 7.30 in each case. The pIC50 at FLT3-ITD is < 7.30.
Turning to `COc1cc2nc(C(=O)O)c(-c3ccc(CC(=O)Nc4cc(C5(C(F)(F)F)CC5)on4)c(F)c3)nc2cc1OC` [Example 133, 3-[3-fluoro-4-[2-oxo-2-[[5-[1-(trifluoro-methyl)cyclopropyl]isoxazol-3-yl]amino]ethyl]phenyl]-6,7-dimethoxy-quinoxaline-2-carboxylic acid], the pKd is 7.30 to 7.70 at FLT3 kinase and < 7.30 on KIT kinase. The pIC50 on FLT3-ITD was < 7.30.
Turning to `COc1cc2nc(-c3ccc(CC(=O)Nc4cc(C5(C(F)(F)F)CC5)on4)c(F)c3)cnc2cc1OCCN1CCCC1` [Example 134, 2-[2-fluoro-4-[7-methoxy-6-(2-pyrrolidin-1-ylethoxy)quinoxalin-2-yl]phenyl]-N-[5-[1-(trifluoromethyl)cyclo-propyl]isoxazol-3-yl]acetamide], the pKd on FLT3 kinase and on KIT kinase was > 8.30 each time. On FLT3-ITD, the pIC50 is > 8.00.
In the case of `COc1cc2nc(C(N)=O)c(-c3ccc(CC(=O)Nc4cc(C5(C(F)(F)F)CC5)on4)c(F)c3)nc2cc1OC` [Example 135, 3-[3-fluoro-4-[2-oxo-2-[[5-[1-(trifluoro-methyl)cyclopropyl]isoxazol-3-yl]amino]ethyl]phenyl]-6,7-dimethoxy-quinoxaline-2-carboxamide], the pKd on FLT3 kinase and on KIT kinase was < 7.30 in each case. For the same compound, at FLT3-ITD, the pIC50 is < 7.30.
On to `COc1cc2nc(-c3ccc(CC(=O)Nc4cc(C5(C(F)(F)F)CC5)on4)c(F)c3)cnc2cc1OCCOC(=O)N(C)C` [Example 136, 2-[2-[3-fluoro-4-[2-oxo-2-[[5-[1-(trifluoro-methyl)cyclopropyl]isoxazol-3-yl]amino]ethyl]phenyl]-7-methoxy-quinoxalin-6-yl]oxyethyl N,N-dimethylcarbamate], for which the pKd at FLT3 kinase is > 8.30; at KIT kinase, 7.70 to 8.30. At FLT3-ITD, the pIC50 was > 8.00.
On to `COc1cc2nc(CO)c(-c3ccc(CC(=O)Nc4cc(C5(C(F)(F)F)CC5)on4)c(F)c3)nc2cc1OC` [Example 137, 2-[2-fluoro-4-[3-(hydroxymethyl)-6,7-dimethoxy-quinoxalin-2-yl]phenyl]-N-[5-[1-(trifluoro-methyl)cyclopropyl]isoxazol-3-yl]acetamide], for which the pKd on FLT3 kinase and at KIT kinase was > 8.30 each time. Besides, on FLT3-ITD, the pIC50 is > 8.00.
`COc1cc2ncc(-c3ccc(CC(=O)Nc4cc(C(C)(C)C(F)(F)F)on4)c(F)c3)c(Cl)c2cc1OC` [Example 138, 2-[4-(4-chloro-6,7-dimethoxy-3-quinolyl)-2-fluoro-phenyl]-N-[5-(2,2,2-trifluoro-1,1-dimethyl-ethyl)isoxazol-3-yl]acetamide]: the pKd on FLT3 kinase and on KIT kinase was > 8.30 in each case. On FLT3-ITD, the pIC50 is > 8.00.
`COc1cc2ncc(-c3ccc(CC(=O)Nc4cc(C(C)(C)C)nn4C)c(F)c3)nc2cc1OC` [Example 139, N-(5-tert-butyl-2-methyl-pyrazol-3-yl)-2-[4-(6,7-dimethoxyquinoxalin-2-yl)-2-fluoro-phenyl]acetamide]: the pKd on FLT3 kinase and on KIT kinase was > 8.30 throughout. For the same compound, on FLT3-ITD, the pIC50 was > 8.00.
On to `COc1cc2ncc(-c3ccc(CC(=O)Nc4cc(C(C)(C)C)nn4-c4ccccc4)c(F)c3)nc2cc1OC` [Example 140, N-(5-tert-butyl-2-phenyl-pyrazol-3-yl)-2-[4-(6,7-dimethoxyquinoxalin-2-yl)-2-fluoro-phenyl]acetamide], for which the values for the pKd at FLT3 kinase and on KIT kinase were > 8.30 and 7.70 to 8.30, respectively. Besides, on FLT3-ITD, the pIC50 is > 8.00.
The like results for `COc1cc2ncc(-c3ccc(CC(=O)Nc4cc(C(C)(C)C(F)(F)F)on4)c(F)c3)c(N=[N+]=[N-])c2cc1OC` [Example 141, 2-[4-(4-azido-6,7-dimethoxy-3-quinolyl)-2-fluoro-phenyl]-N-[5-(2,2,2-trifluoro-1,1-dimethyl-ethyl)isoxazol-3-yl]acetamide] were, in that order, > 8.30, 7.70 to 8.30 and > 8.00.
The like results for `CCN1CC(Oc2cc3ncc(-c4ccc(CC(=O)Nc5cc(C6(C(F)(F)F)CC6)on5)c(F)c4)nc3cc2OC)C1` [Example 142, 2-[4-[6-(1-ethylazetidin-3-yl)oxy-7-methoxy-quinoxalin-2-yl]-2-fluoro-phenyl]-N-[5-[1-(trifluoro-methyl)cyclopropyl]isoxazol-3-yl]acetamide] were, in that order, > 8.30, > 8.30 and > 8.00.
For `COc1cc2ncc(-c3ccc(CC(=O)Nc4cc(C(C)(C)C(F)(F)F)on4)c(F)c3)c(N)c2cc1OC` [Example 143, 2-[4-(4-amino-6,7-dimethoxy-3-quinolyl)-2-fluoro-phenyl]-N-[5-(2,2,2-trifluoro-1,1-dimethyl-ethyl)isoxazol-3-yl]acetamide], in that order: > 8.30, 7.70 to 8.30 and 7.70 to 8.00.
For the compound `COc1cc2nc(-c3ccc(CC(=O)Nc4cc(C5(C(F)(F)F)CC5)on4)c(F)c3)cnc2cc1OC1COC1` [Example 144, 2-[2-fluoro-4-[7-methoxy-6-(oxetan-3-yloxy)quinoxalin-2-yl]phenyl]-N-[5-[1-(trifluoro-methyl)cyclopropyl]isoxazol-3-yl]acetamide], the pKd on FLT3 kinase and on KIT kinase was > 8.30 each time. Further, on FLT3-ITD, the pIC50 is > 8.00.
As to `COc1cc2ncc(-c3ccc(CC(=O)Nc4cc(C(C)(C)C(F)(F)F)on4)c(F)c3)c(OC)c2cc1OC` [Example 145, 2-[2-fluoro-4-(4,6,7-trimethoxy-3-quinolyl)phenyl]-N-[5-(2,2,2-trifluoro-1,1-dimethyl-ethyl)isoxazol-3-yl]acetamide], the figures for the pKd on FLT3 kinase and at KIT kinase were 7.70 to 8.30 and < 7.30, respectively. Also, the negative logarithm of the IC50 (pIC50) on FLT3-ITD was < 7.30.
With `COc1cc2nc(Cl)c(-c3ccc(CC(=O)Nc4cc(C5(C(F)(F)F)CC5)on4)c(F)c3)nc2cc1OC` [Example 146, 2-[4-(3-chloro-6,7-dimethoxy-quinoxalin-2-yl)-2-fluoro-phenyl]-N-[5-[1-(trifluoromethyl)cyclo-propyl]isoxazol-3-yl]acetamide], the pKd at FLT3 kinase and on KIT kinase was > 8.30 throughout. Also, the pIC50 at FLT3-ITD is > 8.00.
`COc1cc2nc(-c3ccc(CC(=O)Nc4cc(C(C)(C)C(F)(F)F)on4)c(F)c3)cnc2cc1OC1COC1` [Example 147, 2-[2-fluoro-4-[7-methoxy-6-(oxetan-3-yloxy)quinoxalin-2-yl]phenyl]-N-[5-(2,2,2-trifluoro-1,1-dimethyl-ethyl)isoxazol-3-yl]acetamide]: the pKd on FLT3 kinase and on KIT kinase was > 8.30 each time. Also, the pIC50 at FLT3-ITD is > 8.00.
